Results published in patent publication US20200102264A1, “MARMELIN ANALOGS AND METHODS OF USE IN CANCER TREATMENT” (THE UNIVERSITY OF KANSAS, priority 2014, published 2020).
Entries after “also recorded” stand apart in the source; their conditions may differ.

Experiments:
[1] = test system: SW480 colon cancer cells; experiment: hexoseaminidase cell proliferation assay, SW480; assay type: cell-based
Excerpt: Using hexoseaminidase assay, we determined the effect of the compounds on cell proliferation. […]
Using hexoseaminidase assay, we determined the effect of the compounds on cell proliferation. […] […] […] Overall, the analogs can be used as chemotherapeutic agents against colon and pancreatic cancer.

[2] = test system: MiaPaCa-2 pancreatic cancer cells; experiment: hexoseaminidase cell proliferation assay, MiaPaCa-2; assay type: cell-based
Protocol: (§1) Using hexoseaminidase assay, we determined the effect of the compounds on cell proliferation. […] The IC50 value at 48 hours is below 10 μM in all the cancer cell lines.
(§2) Using hexoseaminidase assay, we determined the effect of the compounds on cell proliferation. […] The MRL16 IC50 value at 48 hours is below 0.3 μM in Colon cancer cell lines. […] Overall, the analogs can be used as chemotherapeutic agents against colon and pancreatic cancer.

[3] = test system: KU7 bladder cancer cells; experiment: hexoseaminidase cell proliferation assay, KU7; assay type: cell-based
Protocol: as §1

[4] = test system: HCT116 cells; experiment: cell cycle analysis, HCT116; assay type: cell-based; conditions: HCT116, Table 3
[5] = test system: SW480 cells; experiment: cell cycle analysis, SW480; assay type: cell-based; conditions: SW480, Table 3
Protocol: The analogs were tested to determine the ability induce death of colon cancer cells.

[6] = test system: colon, pancreatic and bladder cancer cells; experiment: hexoseaminidase cell proliferation assay, summaries over cell lines; assay type: cell-based; conditions: dose and time dependent
Protocol: Water solubility studies were performed with the CD/analog complexes. […] The observed IC50 value of THBCD at 48 h is below 10 μM in all the colon, pancreatic and bladder cancer cells.
as §1, §2

[7] = test system: HCT116 cells; experiment: colony formation, HCT116; assay type: cell-based
[8] = test system: SW480 cells; experiment: colony formation, SW480; assay type: cell-based
[9] = test system: caspase 3, caspase 8, caspase 9, Bcl2, BclXL, cytochrome c; experiment: western blot analysis, apoptosis proteins; assay type: cell-based; conditions: HCT116 and SW480 cells, 48 h
Protocol: (§3) The pathways for apoptosis were studied to determine whether the analogs were capable of inhibiting certain aspects of the pathways. […] HCT116 and SW480 cells treated with MRL, THB, THBCD, DHB, DHBCD and CD for 48 h and performed for western blot analysis. […] It is shown that THBCD also activates caspase 8 and caspase 9. Furthermore, THB and THBCD inhibit anti-apoptotic protein Bcl2 and BclXL levels. […] HCT116 and SW480 cells treated with MRL, THB, THBCD, DHB, DHBCD and CD for 48 h and performed for western blot analysis. Furthermore, THB and THBCD inhibit phosphorylation of Akt (FIG. 3).

[10] = test system: Cyclin D1, c-Myc, Akt phosphorylation, COX-2, VEGF; experiment: western blot analysis, cancer promoting genes; assay type: cell-based; conditions: HCT116 and SW480 cells, 48 h
Protocol: as §3

[11] = test system: DCLK1, LGR5 and CD44; experiment: stem cell marker protein expression; assay type: cell-based; conditions: HCT116 and SW480 cells
Protocol: The analogs were also tested with doublecortin and CaM kinase-like-1 (DCLK1), a microtubule-associated kinase expressed in postmitotic neurons and is an intestinal stem cell marker that is expressed in colon adenocarcinoma. DCLK1 distinguishes between tumor and normal stem cells in the intestine and could be a therapeutic target for colon cancer.

[12] = test system: Mst1/2, Lats1/2, YAP1, TEAD1, 2, and 4; experiment: Hippo signaling-related proteins; assay type: cell-based; conditions: HCT116 and SW480 cell lines
Excerpt: The Hippo pathway regulates stem cell proliferation, self-renewal, and differentiation. YAP1 is highly expressed gene in stem cells. […] We next determined the effect of THB or THBCD on Hippo signaling-related proteins in the two colon cancer cells.

[13] = molecular target: T1, DCLK1 (Homo sapiens, UniProt O15075); experiment: in vitro kinase assay using recombinant DCLK1; assay type: biochemical; conditions: recombinant DCLK1, dose dependent
T1 construct: we performed an in vitro kinase assay using recombinant DCLK1
Excerpt: DCLK1 encodes a calmodulin-like kinase domain, and has homology to calmodulin kinases CAMKII and CAMKIV. We performed homology modeling and determined that THB can interact with the kinase domain with binding energy of −5.94. Furthermore we performed an in vitro kinase assay using recombinant DCLK1. […] Furthermore, THB and THBCD inhibit cancer stem cell marker DCLK1 expression in the xenograft tumors in both immunohistochemistry and western blot analysis (data not shown).

[14] = test system: CAMKII; experiment: kinase activity against CAMKII; assay type: biochemical
[15] = test system: HCT116 colon cancer tumor xenografts; experiment: HCT116 colon cancer tumor xenografts in nude mice; assay type: in vivo
Protocol: (§4) For in vivo, HCT116 cells were injected into the blanks of nude mice, after one week when there was a palpable tumor and these compounds were injected intraperitonially (5 mg/kg body weight) every day for 21 days. Tumor volumes were measured weekly. On 29th day mice were euthanized and the tumors were removed and weighed for use in histology, immunohistochemistry, and gene expression studies. Both THB and THBCD inhibited growth of the tumor. It is noted that the images of FIG. 4C are from left to right: control; THB; and THBCD.
as §4, with “DBQ” for “Both THB and THBCD”, “inhibited the” for “inhibited”, “16C” for “4C”, “control;” for “control; THB;”, “DBQ.” for “THBCD.”
FIGS. 19A and 19B show MRL 16 inhibits tumor growth, such as on colon cancer tumor xenografts. For in vivo, HCT116 cells were injected into the blanks of nude mice, after one week when there was a palpable tumor and these compounds were injected intraperitonially (2 mg/kg body weight) every day for 21 days. Tumor volumes were measured weekly. On 29th day mice were euthanized and the tumors were removed and weighed. MRL16 inhibited growth of the tumor.

[16] = intraperitoneal 5 mg/kg body weight every day for 21 days

T1 sequence (O15075 whole entry): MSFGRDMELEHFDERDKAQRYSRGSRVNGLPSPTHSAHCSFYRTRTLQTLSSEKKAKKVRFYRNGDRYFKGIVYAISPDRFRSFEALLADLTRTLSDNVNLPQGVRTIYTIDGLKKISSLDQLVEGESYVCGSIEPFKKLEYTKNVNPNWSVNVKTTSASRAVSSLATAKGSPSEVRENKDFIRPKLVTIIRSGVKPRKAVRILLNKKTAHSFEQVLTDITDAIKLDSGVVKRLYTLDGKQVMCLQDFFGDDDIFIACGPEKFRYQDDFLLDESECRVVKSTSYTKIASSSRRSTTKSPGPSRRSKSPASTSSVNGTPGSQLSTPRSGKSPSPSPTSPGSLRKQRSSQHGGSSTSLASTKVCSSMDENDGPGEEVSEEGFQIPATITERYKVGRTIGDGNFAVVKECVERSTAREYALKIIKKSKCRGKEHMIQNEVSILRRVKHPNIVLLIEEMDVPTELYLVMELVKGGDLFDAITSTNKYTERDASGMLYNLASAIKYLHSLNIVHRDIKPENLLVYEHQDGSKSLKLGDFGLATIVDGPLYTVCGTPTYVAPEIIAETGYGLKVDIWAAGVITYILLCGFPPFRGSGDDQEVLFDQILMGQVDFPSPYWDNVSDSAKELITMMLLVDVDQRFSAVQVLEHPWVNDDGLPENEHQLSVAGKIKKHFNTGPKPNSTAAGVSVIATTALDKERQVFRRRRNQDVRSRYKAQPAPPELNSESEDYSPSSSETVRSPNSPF

- IC50 ([1]; SW480, 24 h): > 50 µM
- IC50 ([1]; SW480, 48 h): 10 µM
- IC50 ([1]; SW480, 72 h): 10 µM
- IC50 ([1]; SW480, 72 h, listed as THB): 9 µM
- IC50 ([2]; MiaPaCa-2, 24 h): > 50 µM
- IC50 ([2]; MiaPaCa-2, 48 h): 10 µM
- IC50 ([2]; MiaPaCa-2, 72 h): 10 µM
- IC50 ([2]; MiaPaCa-2, 72 h, listed as THB): 9 µM
- IC50 ([3]; KU7, 24 h): 22 µM
- IC50 ([3]; KU7, 48 h): 8 µM
- IC50 ([3]; KU7, 72 h): 6 µM
- DCLK1 kinase activity [13]: significantly reduced
- fold less activity against CAMKII than DCLK1 [14]: 100 fold
SMILES: O=C(N/N=C/c1ccc(O)c(O)c1O)c1cc2ccccc2cc1O [MRL THB]
- G0/G1 (%) [4]: 17.2%
- G2M (%) [4]: 19.7%
- S (%) [4]: 28.1%
- SubG0 Dead Cells (%) [4]: 29.0%
- G0/G1 (%) [5]: 39.5%
- G2M (%) [5]: 26.8%
- S (%) [5]: 21.8%
- SubG0 Dead Cells (%) [5]: 10.8%
- inhibition of cell proliferation (in words) [6]: potent inhibitor; also recorded: inhibit proliferation
- colony formation [7]: significantly inhibited colony formation
- colony formation [8]: significantly inhibited colony formation
- anti-apoptotic protein Bcl2 and BclXL levels [9]: inhibit
- cytochrome c [9]: inhibit
- COX-2 and VEGF expressions [10]: inhibit
- cyclin D1 and c-Myc levels [10]: inhibit
- phosphorylation of Akt [10]: inhibit
- DCLK1, LGR5 and CD44 expression [11]: significantly inhibited
- expression of TEAD1, 2, and 4 [12]: significant downregulation
- phosphorylation of Mst1/2, Lats1/2 and YAP1 [12]: significantly downregulated
- tumor volume [15, 16]: significantly reduced
- tumor weight [15, 16]: significantly reduced
- phosphorylation of Akt ([15]; tumor tissues): significantly reduced
- COX-2, VEGF and cyclin D1 expression ([15]; tumor xenograft tissues, immunohistochemistry and western blot): significantly reduced
- angiogenesis by CD31 staining ([15]; xenograft tumor tissues, immunohistochemistry): inhibit
- DCLK1 expression ([15]; xenograft tumors, immunohistochemistry and western blot): inhibit
